Test results taken from US20210100247A1, “HARMFUL ORGANISM CONTROL METHOD AND HARMFUL ORGANISM CONTROL COMPOSITION” (priority 2018, published 2021).
“And” between values parts separate entries of the source, which are not always exact repeats. Identical values can stand only once.

Tested on: Tetranychus urticae
Assay: whole plant or invertebrate
Details: for Corrected Adult Insect Mortality Rate Measured Value: adults, 3 days after spraying; for Effectiveness Measured Value: next generation survivors, 10 days after spraying
Procedure: Effecacy Confirmation Test on Tetranychus urticae
Eight or ten adult female Tetranychus urticae mites were inoculated on the kidney bean leaves placed in petri dishes on the day before treating with the chemical solutions.
A flowable agent containing the compound A was diluted with a solution obtained by diluting Rabiden 3S 5,000 times in water to prepare a chemical solution A containing the compound A in which the concentration of the compound A is twice the concentration shown in Tables 1 to 4.
A preparation product containing the compound B was diluted with a solution obtained by diluting Rabiden 3S 5,000 times in water to prepare a chemical solution B containing the compound B in which the concentration of the compound B is twice the concentration shown in Tables 1 to 4.
Test number a: Tebufenpyrad: Pyranica EW (manufactured by Nippon Soda Co., Ltd.) Test numbers b and h: Hexythiazox: Nissolan wettable powder (manufactured by Nippon Soda Co., Ltd.) Test number c: Fenpyroximate: Danitron flowable (manufactured by Nippon Pesticides Co., Ltd.) Test number d: Propargite: Omite wettable powder (manufactured by Nippon Pesticides Co., Ltd.) Test number e: Tolfenpyrad: Hachi-Hachi flowable (manufactured by OAT Agrio) Test number f: Abamectin: Agrimec (manufactured by Syngenta Japan) Test number g: Etoxazole: Baroque flowable (manufactured by Kyoyu Agri co., Ltd.) Test number i: Thiodicarb: Lavin wettable powder 75 (manufactured by Bayer Crop Science) Test number j: Spinosad: Spinoace granule wettable powder (Kumiai Chemical Industry Co., Ltd.) Test number k: Isoxathion: Carphos emulsion (manufactured by Nippon Soda Co., Ltd.) Test number l: Acetamiprid: Mospilan water-soluble agent (manufactured by Nippon Soda Co., Ltd.) Test number m: Fipronil: Prince flowable (manufactured by BASF) Test number n: Tralomethrin: Scout flowable agent (manufactured by Nippon Soda Co., Ltd.) Test number o: BT agent (live spore of Bacillus thuringiensis and crystal toxin produced): Zentari granule wettable powder (manufactured by Kitako Chemical Industry Co., Ltd.) Test number p: Buprofezin: Applaud flowable (manufactured by Nippon Pesticides Co., Ltd.) Test number q: Cyromazine: Triggered liquid (manufactured by Syngenta Japan) Test number r: Tebufenozide: Romdan Flowable (manufactured by Nippon Soda Co., Ltd.) Test number s: Flubendiamide: Phoenix granule wettable powder (Nippon Agricultural Co., Ltd.) Test number t: Pyridalyl: pleo flowable (manufactured by Kyoto Agri) Test number u: Lufenuron: Match emulsion (manufactured by Syngenta Japan) Test number v: Flonicamid: Ulala DF (made by Ishihara Bioscience) Test number w: Chlorfenapyr: Kotetsu Flowable (Nippon Pesticides Co., Ltd.) Test number x: Indoxacarb: Tornado flowable (made by Kumiai Chemical Industry Co., Ltd.) Test number y: Diafenthiuron: Gamba wettable powder (manufactured by Syngenta Japan) Test number z: Thiocyclam: Ebisect wettable powder (manufactured by Mitsui Chemicals Agro) Test number aa: Emamectin-benzoate: Affirm emulsion (Syndienta Japan) Test number ab: Pyridaben: Sanmite wettable powder (manufactured by Nissan Chemical Co., Ltd.)
A mixed solution obtained by mixing equal amounts of the chemical solution A and the chemical solution B was sprayed onto a petri dish containing kidney bean leaves inoculated with Tetranychus urticae mites at an amount of 2 mg per cm^2 using a rotary spray tower (AB mixed-component area).
The chemical solution A and the chemical solution B were each diluted 2-fold with a solution obtained by diluting Labiden 3S 5000 times in water to obtain a chemical solution A′ and a chemical solution B′.
The chemical solution A′ was sprayed onto another petri dish containing kidney bean leaves inoculated with Tetranychus urticae mites at an amount of 2 mg per cm^2 using a rotary spray tower (A single-component area).

[1] = Tetranychus urticae, in Phaseolus vulgaris, 240 h, read-out: Effectiveness Measured Value

With spinosad the “Corrected Adult Insect Mortality Rate Measured Value” (single component 40 ppm) was 0% and the “Effectiveness Measured Value” (single component 40 ppm) was 0%.

CC(C)c1cc(Oc2ccccc2)cc(C(C)C)c1NC(=S)NC(C)(C)C [diafenthiuron] showed a pest or weed control at 25 µg/mL [1] of 7%.

For CCc1nn(C)c(C(=O)NCc2ccc(Oc3ccc(C)cc3)cc2)c1Cl [tolfenpyrad], the pest or weed control at 150 µg/mL [1] was 4%.

C/C(=N\C#N)N(C)Cc1ccc(Cl)nc1 [acetamiprid] gave a pest or weed control at 100 µg/mL [1] of 7%.

With N#CCNC(=O)c1cnccc1C(F)(F)F [flonicamid] the “Corrected Adult Insect Mortality Rate Measured Value” (single component 100 ppm) was 0% and the “Effectiveness Measured Value” (single component 100 ppm) was 3%.

CC1(C)[C@H](C(=O)O[C@H](C#N)c2cccc(Oc3ccccc3)c2)[C@@H]1C(Br)C(Br)(Br)Br (stereo partly drawn) [tralomethrin] showed a pest or weed control at 9.3 µg/mL [1] of 1%.

For CCOCn1c(-c2ccc(Cl)cc2)c(C#N)c(Br)c1C(F)(F)F [chlorfenapyr], the pest or weed control at 50 µg/mL [1] was 46%.

In the case of emamectin-benzoate, the “Corrected Adult Insect Mortality Rate Measured Value” (single component 0.02 ppm) is reported as 40% and the “Effectiveness Measured Value” (single component 0.02 ppm) is reported as 17%.

In the case of C[C@@H]1[C@@H](c2ccc(Cl)cc2)SC(=O)N1C(=O)NC1CCCCC1 [hexythiazox], the pest or weed control at 1.6 µg/mL [1] is reported as 42% and the pest or weed control at 12.5 µg/mL [1] is reported as 90%.

With FC(F)(F)c1ccc(OCCCOc2c(Cl)cc(OCC=C(Cl)Cl)cc2Cl)nc1 [pyridalyl] the pest or weed control at 100 µg/mL [1] was 11%.

Nc1nc(N)nc(NC2CC2)n1 [cyromazine] showed a pest or weed control at 87 µg/mL [1] of 8%.

Compound Cc1nn(C)c(Oc2ccccc2)c1C=NOCc1ccc(C(=O)OC(C)(C)C)cc1 [fenpyroximate] has a pest or weed control at 50 µg/mL [1] of 28%.

Compound CCc1nn(C)c(C(=O)NCc2ccc(C(C)(C)C)cc2)c1Cl [tebufenpyrad] has a pest or weed control at 100 µg/mL [1] of 64%.

CC(C)(C)c1ccc(CSc2cnn(C(C)(C)C)c(=O)c2Cl)cc1 [pyridaben] showed a pest or weed control at 200 µg/mL [1] of 0%.

CC(C)N1C(=O)N(c2ccccc2)CS/C1=N\C(C)(C)C [buprofezin] gave a pest or weed control at 200 µg/mL [1] of 17%.

Cc1cc(C(F)(C(F)(F)F)C(F)(F)F)ccc1NC(=O)c1cccc(I)c1C(=O)NC(C)(C)CS(C)(=O)=O [flubendiamide] gave a pest or weed control at 100 µg/mL [1] of 3%.

Compound N#Cc1nn(-c2c(Cl)cc(C(F)(F)F)cc2Cl)c(N)c1[S+]([O-])C(F)(F)F (stereo not drawn) [fipronil] has a pest or weed control at 22 µg/mL [1] of 2%.

In the case of CCCOc1cc(C(F)(F)F)ccc1O[C@H]1C[C@H]2CCC[C@@H](C1)N2Oc1ccc(C(F)(F)F)cn1 [acynonapyr, 3-endo-[2-propoxy-4-(trifluoromethyl)phenoxy]-9-[5-(trifluoromethyl)-2-pyridyloxy]-9-azabicyclo[3.3.1] nonan], the “Effectiveness Measured Value” (single component 2.0 ppm) is reported as 49% and 51% and 60% and 68% and 46%.

In the case of O=C(NC(=O)c1c(F)cccc1F)Nc1cc(Cl)c(OC(F)(F)C(F)C(F)(F)F)cc1Cl (stereo not drawn) [lufenuron], the pest or weed control at 100 µg/mL [1] is reported as 14%.

In the case of COC(=O)N(C(=O)N1CO[C@@]2(C(=O)OC)Cc3cc(Cl)ccc3C2=N1)c1ccc(OC(F)(F)F)cc1 [indoxacarb], the “Corrected Adult Insect Mortality Rate Measured Value” (single component 50 ppm) is reported as 0% and the “Effectiveness Measured Value” (single component 50 ppm) is reported as 0%.

Work on CCc1ccc(C(=O)NN(C(=O)c2cc(C)cc(C)c2)C(C)(C)C)cc1 [tebufenozide] yielded a pest or weed control at 200 µg/mL [1] of 10%.

For abamectin, the “Corrected Adult Insect Mortality Rate Measured Value” (single component 0.017 ppm) was 0% and the “Effectiveness Measured Value” (single component 0.017 ppm) was 11%.

CCOP(=S)(OCC)Oc1cc(-c2ccccc2)on1 [isoxathion] gave a pest or weed control at 500 µg/mL [1] of 50%.

Work on CS/C(C)=N\OC(=O)N(C)SN(C)C(=O)O/N=C(\C)SC [thiodicarb] yielded a pest or weed control at 750 µg/mL [1] of 0%.

With CCOc1cc(C(C)(C)C)ccc1C1COC(c2c(F)cccc2F)=N1 (stereo not drawn) [etoxazole] the pest or weed control at 1.6 µg/mL [1] was 85%.

CN(C)C1CSSSC1 [thiocyclam] was tested, and the pest or weed control at 500 µg/mL [1] was 18%.

C#CCOS(=O)OC1CCCCC1Oc1ccc(C(C)(C)C)cc1 (stereo not drawn) [propargite] showed a pest or weed control at 40 µg/mL [1] of 18%.
